Measurements taken from PMC10104807, “Modulation of tau tubulin kinases (TTBK1 and TTBK2) impacts ciliogenesis” (Scientific Reports, 2023).
“And” between values parts separate entries of the source, which are not always exact repeats. Equal values may be shown once. Read-outs that look alike come from different tables or passages of the source.

Key:
Assay in all cases: Eurofins enzymatic radiometric kinase assay
Assay type in all cases: biochemical
[1] = target: T1, PAK3 (Homo sapiens, UniProt O75914); settings: ATP at Km, duplicate
T1 construct: purchased Eurofins (radiometric) / Eurofins DiscoverX scanMAX / Reaction Biology / SignalChem
T1 sequence (O75914 whole entry): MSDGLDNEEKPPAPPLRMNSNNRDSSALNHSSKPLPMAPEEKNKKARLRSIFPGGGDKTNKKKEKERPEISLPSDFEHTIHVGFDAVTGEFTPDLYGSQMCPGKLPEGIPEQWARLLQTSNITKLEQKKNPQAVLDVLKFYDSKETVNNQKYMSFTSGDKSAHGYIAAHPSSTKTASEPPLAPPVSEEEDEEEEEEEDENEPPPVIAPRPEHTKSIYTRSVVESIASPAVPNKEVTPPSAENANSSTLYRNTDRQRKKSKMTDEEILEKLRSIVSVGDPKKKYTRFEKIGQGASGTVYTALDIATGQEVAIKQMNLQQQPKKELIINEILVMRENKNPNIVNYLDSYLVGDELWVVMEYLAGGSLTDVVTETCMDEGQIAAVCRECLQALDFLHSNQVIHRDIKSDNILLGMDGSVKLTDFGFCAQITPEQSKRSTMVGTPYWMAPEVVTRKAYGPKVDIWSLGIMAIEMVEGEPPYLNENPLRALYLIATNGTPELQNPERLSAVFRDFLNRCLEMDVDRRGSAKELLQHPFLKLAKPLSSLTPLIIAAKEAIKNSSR
Description: (§1) The column labeled “# < 10 PoC in enzyme panel” in Table 1 reports the number of kinases in this 17-member panel inhibited > 90% by each analog.
(§2) Details about the substrate used, protein constructs, controls, and assay protocol for these kinase assays are available at the Eurofins website: https://www.eurofinsdiscoveryservices.com. Reaction Biology Corp. (RBC) radiometric HotSpot kinase assays were carried out at the Km value for ATP in dose–response (10-pt curve) format for MYLK4, RIPK5, and YSK4 in Table S2. Details about the substrate used, protein constructs, controls, and assay protocol for these kinase assays are available at the RBC website: https://www.reactionbiology.com/list-kinase-targets-us-facility. SignalChem developed an ADP-Glo assay to test for enzymatic inhibition of PIKfyve in dose–response (10-pt curve) format in duplicate.

[2] = target: T2, PAK5 (Homo sapiens, UniProt Q9P286); settings: ATP at Km, duplicate
T2 construct: purchased Eurofins (radiometric) / Eurofins DiscoverX scanMAX / Reaction Biology / SignalChem
T2 sequence (Q9P286 whole entry): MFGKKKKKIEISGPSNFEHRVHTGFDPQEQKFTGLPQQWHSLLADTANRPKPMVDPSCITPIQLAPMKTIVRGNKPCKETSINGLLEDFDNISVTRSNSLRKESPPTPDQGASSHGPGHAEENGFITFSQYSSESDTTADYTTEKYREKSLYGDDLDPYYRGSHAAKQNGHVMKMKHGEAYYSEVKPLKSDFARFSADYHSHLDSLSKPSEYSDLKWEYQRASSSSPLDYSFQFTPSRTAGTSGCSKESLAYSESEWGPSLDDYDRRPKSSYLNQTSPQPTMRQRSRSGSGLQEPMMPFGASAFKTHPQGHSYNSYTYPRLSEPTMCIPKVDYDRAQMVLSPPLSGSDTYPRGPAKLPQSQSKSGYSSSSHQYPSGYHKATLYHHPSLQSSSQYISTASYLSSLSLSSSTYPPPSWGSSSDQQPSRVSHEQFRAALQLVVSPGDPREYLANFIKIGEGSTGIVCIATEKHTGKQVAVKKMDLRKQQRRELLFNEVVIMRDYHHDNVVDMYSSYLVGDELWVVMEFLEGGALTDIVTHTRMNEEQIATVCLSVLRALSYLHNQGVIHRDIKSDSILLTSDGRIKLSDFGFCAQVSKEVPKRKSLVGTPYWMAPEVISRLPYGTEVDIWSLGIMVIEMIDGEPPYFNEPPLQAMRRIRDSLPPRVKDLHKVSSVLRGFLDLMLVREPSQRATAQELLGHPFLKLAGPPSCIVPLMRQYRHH
Description: as §1, §2

[3] = target: T3, MARK4 (Homo sapiens, UniProt Q96L34); settings: ATP at Km, duplicate
T3 construct: purchased Eurofins (radiometric) / Eurofins DiscoverX scanMAX / Reaction Biology / SignalChem
T3 sequence (Q96L34 1-752): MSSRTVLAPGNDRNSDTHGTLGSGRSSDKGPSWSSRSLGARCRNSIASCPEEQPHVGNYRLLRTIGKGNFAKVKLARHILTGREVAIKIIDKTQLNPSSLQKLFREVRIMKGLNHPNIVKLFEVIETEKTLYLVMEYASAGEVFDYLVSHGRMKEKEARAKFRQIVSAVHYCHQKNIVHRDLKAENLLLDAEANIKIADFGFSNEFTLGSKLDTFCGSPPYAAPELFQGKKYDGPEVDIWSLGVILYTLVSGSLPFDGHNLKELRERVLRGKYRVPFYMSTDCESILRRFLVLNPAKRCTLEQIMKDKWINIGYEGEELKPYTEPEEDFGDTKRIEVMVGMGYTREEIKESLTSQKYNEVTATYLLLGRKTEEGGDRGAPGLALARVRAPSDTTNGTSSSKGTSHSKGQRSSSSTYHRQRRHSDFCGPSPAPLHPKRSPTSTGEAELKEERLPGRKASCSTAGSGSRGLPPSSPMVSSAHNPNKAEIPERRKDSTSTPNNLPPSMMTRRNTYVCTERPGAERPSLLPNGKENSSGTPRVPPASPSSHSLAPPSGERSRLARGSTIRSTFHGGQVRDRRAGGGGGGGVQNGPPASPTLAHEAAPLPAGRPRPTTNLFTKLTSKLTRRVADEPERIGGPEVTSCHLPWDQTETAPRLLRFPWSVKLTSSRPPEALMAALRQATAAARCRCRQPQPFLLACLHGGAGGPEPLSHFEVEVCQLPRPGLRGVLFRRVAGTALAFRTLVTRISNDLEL
Description: as §1, §2

[4] = target: T4, PAK4 (Homo sapiens, UniProt O96013); settings: ATP at Km, duplicate
T4 construct: purchased Eurofins (radiometric) / Eurofins DiscoverX scanMAX / Reaction Biology / SignalChem
T4 sequence (O96013 whole entry): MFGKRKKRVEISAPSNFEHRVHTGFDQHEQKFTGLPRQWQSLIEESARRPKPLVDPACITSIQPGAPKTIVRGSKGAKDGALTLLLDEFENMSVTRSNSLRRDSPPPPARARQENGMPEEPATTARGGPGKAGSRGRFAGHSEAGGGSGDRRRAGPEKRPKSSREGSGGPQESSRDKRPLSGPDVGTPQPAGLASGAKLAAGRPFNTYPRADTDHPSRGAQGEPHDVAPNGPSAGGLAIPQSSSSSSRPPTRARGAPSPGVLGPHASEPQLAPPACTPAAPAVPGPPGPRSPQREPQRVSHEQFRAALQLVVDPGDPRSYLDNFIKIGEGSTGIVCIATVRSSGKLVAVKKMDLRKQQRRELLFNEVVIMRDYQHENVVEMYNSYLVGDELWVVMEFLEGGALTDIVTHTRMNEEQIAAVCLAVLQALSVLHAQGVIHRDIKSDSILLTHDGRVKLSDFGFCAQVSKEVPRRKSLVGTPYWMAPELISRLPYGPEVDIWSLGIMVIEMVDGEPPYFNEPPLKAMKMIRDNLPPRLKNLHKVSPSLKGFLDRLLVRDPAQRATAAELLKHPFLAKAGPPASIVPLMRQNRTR
Description: as §1, §2

[5] = target: T5, TTBK1 (Homo sapiens, UniProt Q5TCY1); settings: for TTBK1 PoC: 1 μM, duplicate, lower = greater inhibition
T5 construct: purchased Eurofins
T5 sequence (Q5TCY1 whole entry): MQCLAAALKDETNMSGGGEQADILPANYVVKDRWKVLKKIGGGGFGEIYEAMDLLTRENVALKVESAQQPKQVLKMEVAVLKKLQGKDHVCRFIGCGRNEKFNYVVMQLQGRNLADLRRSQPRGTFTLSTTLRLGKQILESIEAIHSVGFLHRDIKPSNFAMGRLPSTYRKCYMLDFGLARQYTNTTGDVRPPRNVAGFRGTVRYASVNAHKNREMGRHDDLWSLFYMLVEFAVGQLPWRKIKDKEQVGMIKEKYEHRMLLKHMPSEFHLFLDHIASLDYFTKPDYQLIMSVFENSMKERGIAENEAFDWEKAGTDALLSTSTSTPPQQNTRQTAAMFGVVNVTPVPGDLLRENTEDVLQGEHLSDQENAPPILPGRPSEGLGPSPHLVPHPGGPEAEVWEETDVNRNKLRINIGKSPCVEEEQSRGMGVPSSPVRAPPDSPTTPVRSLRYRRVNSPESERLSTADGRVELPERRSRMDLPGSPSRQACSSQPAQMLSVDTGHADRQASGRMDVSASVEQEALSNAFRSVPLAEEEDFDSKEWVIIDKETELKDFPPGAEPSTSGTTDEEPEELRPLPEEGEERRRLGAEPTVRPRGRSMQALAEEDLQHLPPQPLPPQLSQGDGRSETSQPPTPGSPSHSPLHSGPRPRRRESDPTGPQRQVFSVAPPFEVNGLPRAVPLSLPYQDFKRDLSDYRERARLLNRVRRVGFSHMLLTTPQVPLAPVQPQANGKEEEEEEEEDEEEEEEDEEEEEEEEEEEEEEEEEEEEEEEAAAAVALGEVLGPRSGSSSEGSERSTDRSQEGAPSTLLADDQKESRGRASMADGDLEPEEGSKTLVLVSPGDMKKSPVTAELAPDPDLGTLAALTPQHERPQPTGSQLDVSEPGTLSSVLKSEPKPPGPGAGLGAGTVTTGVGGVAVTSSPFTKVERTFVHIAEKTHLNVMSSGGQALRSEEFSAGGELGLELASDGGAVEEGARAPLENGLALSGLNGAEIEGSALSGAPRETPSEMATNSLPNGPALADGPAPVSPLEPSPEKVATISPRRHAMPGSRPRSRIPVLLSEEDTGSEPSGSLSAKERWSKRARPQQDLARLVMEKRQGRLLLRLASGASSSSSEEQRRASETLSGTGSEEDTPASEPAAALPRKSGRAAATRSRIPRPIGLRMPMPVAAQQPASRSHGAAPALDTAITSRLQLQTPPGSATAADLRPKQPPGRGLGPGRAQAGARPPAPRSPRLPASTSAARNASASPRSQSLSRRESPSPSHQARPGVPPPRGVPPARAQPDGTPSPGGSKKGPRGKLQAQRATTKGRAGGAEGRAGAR
Description: as §1, §2

[6] = target: T6, TSSK3 (Homo sapiens, UniProt Q96PN8); settings: ATP at Km, duplicate
T6 construct: purchased Eurofins
T6 sequence (Q96PN8 1-268): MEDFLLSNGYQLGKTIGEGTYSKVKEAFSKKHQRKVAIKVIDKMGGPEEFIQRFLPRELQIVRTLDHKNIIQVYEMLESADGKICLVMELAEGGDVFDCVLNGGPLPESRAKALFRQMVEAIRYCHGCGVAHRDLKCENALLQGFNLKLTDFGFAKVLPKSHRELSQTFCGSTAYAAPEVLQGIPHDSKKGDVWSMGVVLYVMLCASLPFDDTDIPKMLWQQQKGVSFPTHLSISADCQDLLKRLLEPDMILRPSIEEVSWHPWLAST
Description: as §1, §2

[7] = target: T7, TAOK1 (Homo sapiens, UniProt Q7L7X3); settings: ATP at Km, duplicate
T7 construct: purchased Eurofins
T7 sequence (Q7L7X3 1-1001): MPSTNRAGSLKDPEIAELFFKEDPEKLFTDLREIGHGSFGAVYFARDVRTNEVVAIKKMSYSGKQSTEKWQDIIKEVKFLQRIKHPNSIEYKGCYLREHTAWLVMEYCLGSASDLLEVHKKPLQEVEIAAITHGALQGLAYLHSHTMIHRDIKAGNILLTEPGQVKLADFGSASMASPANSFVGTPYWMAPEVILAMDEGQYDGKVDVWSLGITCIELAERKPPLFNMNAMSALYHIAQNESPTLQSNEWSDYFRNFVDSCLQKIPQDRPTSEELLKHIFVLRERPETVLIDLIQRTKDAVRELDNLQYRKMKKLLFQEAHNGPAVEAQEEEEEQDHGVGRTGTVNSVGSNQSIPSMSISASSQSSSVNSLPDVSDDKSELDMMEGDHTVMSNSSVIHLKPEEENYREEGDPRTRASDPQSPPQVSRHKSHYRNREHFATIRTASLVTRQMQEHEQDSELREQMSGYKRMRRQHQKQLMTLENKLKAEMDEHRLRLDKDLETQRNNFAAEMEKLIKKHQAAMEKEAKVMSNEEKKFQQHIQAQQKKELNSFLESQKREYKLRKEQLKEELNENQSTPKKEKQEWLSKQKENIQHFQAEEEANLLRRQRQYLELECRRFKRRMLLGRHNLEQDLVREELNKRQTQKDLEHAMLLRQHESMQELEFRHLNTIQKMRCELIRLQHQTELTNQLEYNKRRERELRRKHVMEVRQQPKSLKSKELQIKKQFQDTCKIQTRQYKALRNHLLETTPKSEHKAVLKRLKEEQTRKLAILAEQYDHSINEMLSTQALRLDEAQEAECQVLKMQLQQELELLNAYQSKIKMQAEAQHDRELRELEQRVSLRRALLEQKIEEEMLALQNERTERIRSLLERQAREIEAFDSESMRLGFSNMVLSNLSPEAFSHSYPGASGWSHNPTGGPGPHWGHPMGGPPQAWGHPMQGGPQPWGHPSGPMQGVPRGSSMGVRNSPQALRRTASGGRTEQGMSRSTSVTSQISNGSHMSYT
Description: as §1, §2

Row | SMILES | PAK3 PoC at 1 μM [1] [PoC] | PAK5 PoC at 1 μM [2] [PoC] | MARK4 PoC at 1 μM [3] [PoC] | PAK4 PoC at 1 μM [4] [PoC] | IC50 [5] [µM] | TTBK1 PoC ([5]; ATP at Km) | IC50 ([5]; ATP at Km, dose–response 9-pt curve) [µM] | TSSK3 PoC at 1 μM [6] [PoC] | TAOK1 PoC at 1 μM [7] [PoC]
1 | CC(C)(O)C#Cc1ccc2[nH]c3c(c2c1)-c1nc(N)ncc1CC3 [Compound 1] | 86 | 48 | 53 | 58 | > 1 | 78 PoC | 3.14 | 11 | 5
2 | COC(C)(C)C#Cc1ccc2[nH]c3c(c2c1)-c1nc(N)ncc1CCC3 [Compound 11] | 100 | 88 | 103 | 91 | – | 117 PoC and 117/NT PoC | – | 75 | 73
3 | CC(C)(O)C#Cc1ccc2[nH]cc(-c3ccnc(N)n3)c2c1 [Compound 3] | 104 | 31 | 43 | 30 | – | 43 PoC | – | 5 | 7
4 | CC(C)(O)C#Cc1ccc2[nH]c3c(c2c1)-c1nc(N)ncc1CCC3 [AMG28, reference compound] | 86 | 3 | 18 | 8 | – | – | – | 1 | 2
5 | CC(C)(O)C#Cc1ccc2[nH]c3c(c2c1)-c1nc(N)ncc1CCCC3 [Compound 2] | 100 | 87 | 86 | 67 | – | 92 PoC and 92/NT^[c] PoC | – | 120 | 65
